Values of other authors as cited in patent US6974895B1, “Transgenic legume plants modified to produce resveratrol glucoside and uses thereof” (The Samuel Roberts Noble Foundation, Inc., priority 1999, dated 2005).

Test system: aberrant colon crypt formation
Conditions: azoxymethane treated rat model (Steele, et al. 1998)

Oc1ccc(C=Cc2cc(O)cc(O)c2)cc1 [resveratrol, 3,5,4′-trihydroxystilbene]
inhibition of aberrant colon crypt formation: significant inhibition
